Measured values reported in PubChem BioAssay AID1259407 (Chemical Carcinogenesis Research Information System (CCRIS), 2018).
Active and inactive are the calls of the source. How the calls were made is not given here.

Test system: CCRIS mutagenicity, Ames/micronucleus/aberration tests
Test: CCRIS mutagenicity studies
[1] = Test System: AMES SALMONELLA TYPHIMURIUM, Strain/Indicator: TA98, Metabolic Activation: NONE, Method: STANDARD PLATE
[2] = Test System: AMES SALMONELLA TYPHIMURIUM, Strain/Indicator: TA100, Metabolic Activation: NONE, Method: STANDARD PLATE
[3] = Test System: AMES SALMONELLA TYPHIMURIUM, Strain/Indicator: TA98, Metabolic Activation: RAT, LIVER, S-9, AROCLOR 1254, Method: STANDARD PLATE
[4] = Test System: AMES SALMONELLA TYPHIMURIUM, Strain/Indicator: TA100, Metabolic Activation: RAT, LIVER, S-9, AROCLOR 1254, Method: STANDARD PLATE
[5] = Test System: AMES SALMONELLA TYPHIMURIUM, Strain/Indicator: TA1537, Metabolic Activation: NONE, Method: STANDARD PLATE
[6] = Test System: AMES SALMONELLA TYPHIMURIUM, Strain/Indicator: TA1537, Metabolic Activation: RAT, LIVER, S-9, AROCLOR 1254, Method: STANDARD PLATE

## [NH-]CCC(=O)[N-][C@@H](Cc1cnc[nH]1)C(=O)[O-].[Zn+2]
Test System: AMES SALMONELLA TYPHIMURIUM, Strain/Indicator: SD100, Metabolic Activation: NONE, Method: PREINCUBATION
  mutagenic call: inactive; negative
Test System: AMES SALMONELLA TYPHIMURIUM, Strain/Indicator: SD100, Metabolic Activation: RAT, LIVER, S-9, AROCLOR 1254, Method: PREINCUBATION
  mutagenic call: inactive; negative
Test System: AMES SALMONELLA TYPHIMURIUM, Strain/Indicator: TM677, Metabolic Activation: NONE, Method: PREINCUBATION
  mutagenic call: inactive; negative
Test System: AMES SALMONELLA TYPHIMURIUM, Strain/Indicator: TM677, Metabolic Activation: RAT, LIVER, S-9, AROCLOR 1254, Method: PREINCUBATION
  mutagenic call: inactive; negative
Test System: E. COLI, Strain/Indicator: WP2 UVRA, Metabolic Activation: NONE, Method: PREINCUBATION
  mutagenic call: inactive; negative
Test System: E. COLI, Strain/Indicator: WP2 UVRA, Metabolic Activation: RAT, LIVER, S-9, AROCLOR 1254, Method: PREINCUBATION
  mutagenic call: inactive; negative

## Cc1c2c3c(cccc3c3ccccc13)-c1ccccc1-2
Test System: AMES SALMONELLA TYPHIMURIUM, Strain/Indicator: TA100, Metabolic Activation: RAT, LIVER, S-9, AROCLOR 1254
  mutagenic call: active; positive

## O=[N+]([O-])c1ccc2c3c(c(O)ccc13)-c1ccccc1-2
Test System: AMES SALMONELLA TYPHIMURIUM, Strain/Indicator: TA98(1,8-DNP6), Metabolic Activation: NONE, Method: STANDARD PLATE
  mutagenic call: inactive; negative
Test System: AMES SALMONELLA TYPHIMURIUM, Strain/Indicator: TA98(NR), Metabolic Activation: NONE, Method: STANDARD PLATE
  mutagenic call: inactive; negative
[1]
  mutagenic call: active; positive
Test System: AMES SALMONELLA TYPHIMURIUM, Strain/Indicator: TA100(NR), Metabolic Activation: NONE, Method: STANDARD PLATE
  mutagenic call: inactive; negative
Test System: AMES SALMONELLA TYPHIMURIUM, Strain/Indicator: TA100(TN5-1,8-DNP1012), Metabolic Activation: NONE, Method: STANDARD PLATE
  mutagenic call: inactive; negative
[2]
  mutagenic call: inactive; negative

## CCc1cn([C@H]2C[C@H](O)[C@@H](CO)O2)c(=O)[nH]c1=O
Test System: AMES SALMONELLA TYPHIMURIUM, Strain/Indicator: TA97, Metabolic Activation: NONE, Method: PREINCUBATION
  mutagenic call: inactive; negative
Test System: AMES SALMONELLA TYPHIMURIUM, Strain/Indicator: TA97, Metabolic Activation: RAT, LIVER, S-9, AROCLOR 1254, Method: PREINCUBATION
  mutagenic call: inactive; negative
Test System: AMES SALMONELLA TYPHIMURIUM, Strain/Indicator: TA98, Metabolic Activation: NONE, Method: PREINCUBATION
  mutagenic call: inactive; negative
[1]
  mutagenic call: inactive; negative
Test System: AMES SALMONELLA TYPHIMURIUM, Strain/Indicator: TA98, Metabolic Activation: RAT, LIVER, S-9, AROCLOR 1254, Method: PREINCUBATION
  mutagenic call: inactive; negative
[3]
  mutagenic call: inactive; negative
Test System: AMES SALMONELLA TYPHIMURIUM, Strain/Indicator: TA100, Metabolic Activation: NONE, Method: PREINCUBATION
  mutagenic call: inactive; negative
[2]
  mutagenic call: inactive; negative
Test System: AMES SALMONELLA TYPHIMURIUM, Strain/Indicator: TA100, Metabolic Activation: RAT, LIVER, S-9, AROCLOR 1254, Method: PREINCUBATION
  mutagenic call: inactive; negative
[4]
  mutagenic call: inactive; negative
Test System: AMES SALMONELLA TYPHIMURIUM, Strain/Indicator: TA102, Metabolic Activation: NONE, Method: PREINCUBATION
  mutagenic call: inactive; negative
Test System: AMES SALMONELLA TYPHIMURIUM, Strain/Indicator: TA102, Metabolic Activation: RAT, LIVER, S-9, AROCLOR 1254, Method: PREINCUBATION
  mutagenic call: inactive; negative
Test System: AMES SALMONELLA TYPHIMURIUM, Strain/Indicator: TA104, Metabolic Activation: NONE, Method: PREINCUBATION
  mutagenic call: inactive; negative
Test System: AMES SALMONELLA TYPHIMURIUM, Strain/Indicator: TA104, Metabolic Activation: RAT, LIVER, S-9, AROCLOR 1254, Method: PREINCUBATION
  mutagenic call: inactive; negative
Test System: AMES SALMONELLA TYPHIMURIUM, Strain/Indicator: TA1535, Metabolic Activation: NONE, Method: PREINCUBATION
  mutagenic call: inactive; negative
Test System: AMES SALMONELLA TYPHIMURIUM, Strain/Indicator: TA1535, Metabolic Activation: RAT, LIVER, S-9, AROCLOR 1254, Method: PREINCUBATION
  mutagenic call: inactive; negative
Test System: AMES SALMONELLA TYPHIMURIUM, Strain/Indicator: TA1537, Metabolic Activation: NONE, Method: PREINCUBATION
  mutagenic call: inactive; negative
[5]
  mutagenic call: inactive; negative
Test System: AMES SALMONELLA TYPHIMURIUM, Strain/Indicator: TA1537, Metabolic Activation: RAT, LIVER, S-9, AROCLOR 1254, Method: PREINCUBATION
  mutagenic call: inactive; negative
[6]
  mutagenic call: inactive; negative
Test System: AMES SALMONELLA TYPHIMURIUM, Strain/Indicator: TA1538, Metabolic Activation: NONE, Method: PREINCUBATION
  mutagenic call: inactive; negative
Test System: AMES SALMONELLA TYPHIMURIUM, Strain/Indicator: TA1538, Metabolic Activation: RAT, LIVER, S-9, AROCLOR 1254, Method: PREINCUBATION
  mutagenic call: inactive; negative
Test System: CHINESE HAMSTER V-79, Strain/Indicator: V-79/8-AZAGUANINE, Metabolic Activation: NONE
  mutagenic call: inactive; negative

## C=C(C)C(C)=O
Test System: AMES SALMONELLA TYPHIMURIUM, Strain/Indicator: TA98, Metabolic Activation: HAMSTER, LIVER, S-9, AROCLOR 1254, Method: STANDARD PLATE
  mutagenic call: inactive; negative
[1]
  mutagenic call: inactive; negative
[3]
  mutagenic call: inactive; negative
Test System: AMES SALMONELLA TYPHIMURIUM, Strain/Indicator: TA100, Metabolic Activation: HAMSTER, LIVER, S-9, AROCLOR 1254, Method: STANDARD PLATE
  mutagenic call: inactive; negative
[2]
  mutagenic call: inactive; negative
[4]
  mutagenic call: inactive; negative
Test System: AMES SALMONELLA TYPHIMURIUM, Strain/Indicator: TA1535, Metabolic Activation: HAMSTER, LIVER, S-9, AROCLOR 1254, Method: STANDARD PLATE
  mutagenic call: inactive; negative
Test System: AMES SALMONELLA TYPHIMURIUM, Strain/Indicator: TA1535, Metabolic Activation: NONE, Method: STANDARD PLATE
  mutagenic call: inactive; negative
Test System: AMES SALMONELLA TYPHIMURIUM, Strain/Indicator: TA1535, Metabolic Activation: RAT, LIVER, S-9, AROCLOR 1254, Method: STANDARD PLATE
  mutagenic call: inactive; negative
Test System: AMES SALMONELLA TYPHIMURIUM, Strain/Indicator: TA1537, Metabolic Activation: HAMSTER, LIVER, S-9, AROCLOR 1254, Method: STANDARD PLATE
  mutagenic call: inactive; negative
[5]
  mutagenic call: inactive; negative
[6]
  mutagenic call: inactive; negative
Test System: AMES SALMONELLA TYPHIMURIUM, Strain/Indicator: TA1538, Metabolic Activation: HAMSTER, LIVER, S-9, AROCLOR 1254, Method: STANDARD PLATE
  mutagenic call: inactive; negative
Test System: AMES SALMONELLA TYPHIMURIUM, Strain/Indicator: TA1538, Metabolic Activation: NONE, Method: STANDARD PLATE
  mutagenic call: inactive; negative
Test System: AMES SALMONELLA TYPHIMURIUM, Strain/Indicator: TA1538, Metabolic Activation: RAT, LIVER, S-9, AROCLOR 1254, Method: STANDARD PLATE
  mutagenic call: inactive; negative
Test System: Mouse lymphoma, Strain/Indicator: L5178Y (tk+/tk-), Metabolic Activation: None, Method: Suspension/plate
  mutagenic call: active; positive
Test System: Mouse lymphoma, Strain/Indicator: L5178Y (tk+/tk-), Metabolic Activation: Rat, Liver, S-9, Aroclor 1254, Method: Suspension/plate
  mutagenic call: active; positive

## CC(=O)N(O)c1ccc(Br)cc1
[1]
  mutagenic call: inactive; negative
[3]
  mutagenic call: inactive; negative
[2]
  mutagenic call: inactive; negative
[4]
  mutagenic call: inactive; negative

## CCOc1ccc(NC(=O)CC(C)O)cc1 (stereo unspecified)
Test System: AMES SALMONELLA TYPHIMURIUM, Strain/Indicator: TA100, Metabolic Activation: HAMSTER, LIVER, S-9, KANECHLOR 400, Method: PREINCUBATION
  mutagenic call: active; positive
Test System: AMES SALMONELLA TYPHIMURIUM, Strain/Indicator: TA100, Metabolic Activation: HAMSTER, LIVER, S-9, Method: PREINCUBATION
  mutagenic call: inactive; negative
Test System: AMES SALMONELLA TYPHIMURIUM, Strain/Indicator: TA100, Metabolic Activation: RAT, LIVER, S-9, KANECHLOR 400, Method: PREINCUBATION
  mutagenic call: inactive; negative
Test System: AMES SALMONELLA TYPHIMURIUM, Strain/Indicator: TA100, Metabolic Activation: RAT, LIVER, S-9, Method: PREINCUBATION
  mutagenic call: inactive; negative
